Experimental data published in the NIST ThermoML archive (doi:10.1021/acs.jced.7b00694).

Test: xn = mol fraction of the nth substance listed
Details: Gas, Buoyancy - hydrostatic balance with magnetic suspension - one sinker

[HH] [hydrogen] + N#N
Details | mass density [kg/m3]
324.95 K, 4997 kPa, x2 = 0.95 | 49.08
324.95 K, 4998 kPa, x2 = 0.9 | 46.597
324.95 K, 5000 kPa, x2 = 0.5001 | 27.194
324.95 K, 5997 kPa, x2 = 0.9 | 55.762
324.95 K, 5997 kPa, x2 = 0.95 | 58.767
324.95 K, 6001 kPa, x2 = 0.5001 | 32.482
324.95 K, 6997 kPa, x2 = 0.9 | 64.863
324.95 K, 7000 kPa, x2 = 0.95 | 68.408
324.95 K, 7002 kPa, x2 = 0.5001 | 37.712
324.95 K, 7996 kPa, x2 = 0.5001 | 42.85
324.95 K, 7997 kPa, x2 = 0.95 | 77.913
324.95 K, 7998 kPa, x2 = 0.9 | 73.894
324.95 K, 8997 kPa, x2 = 0.5001 | 47.967
324.95 K, 8998 kPa, x2 = 0.9 | 82.834
324.95 K, 8999 kPa, x2 = 0.95 | 87.379
324.95 K, 9998 kPa, x2 = 0.5001 | 53.025
324.95 K, 9998 kPa, x2 = 0.9 | 91.672
324.95 K, 9999 kPa, x2 = 0.95 | 96.736
324.95 K, 10996 kPa, x2 = 0.5001 | 58.014
324.95 K, 10996 kPa, x2 = 0.95 | 105.963
324.95 K, 10997 kPa, x2 = 0.9 | 100.42
324.95 K, 11997 kPa, x2 = 0.5001 | 62.949
324.95 K, 11999 kPa, x2 = 0.9 | 109.068
324.95 K, 12979 kPa, x2 = 0.95 | 123.971
324.95 K, 12995 kPa, x2 = 0.5001 | 67.81
324.95 K, 13000 kPa, x2 = 0.9 | 117.611
324.95 K, 13992 kPa, x2 = 0.5001 | 72.609
324.95 K, 13997 kPa, x2 = 0.9 | 126.005
324.95 K, 13998 kPa, x2 = 0.95 | 133.041
324.95 K, 14993 kPa, x2 = 0.5001 | 77.366
324.95 K, 14996 kPa, x2 = 0.9 | 134.301
324.95 K, 15985 kPa, x2 = 0.5001 | 82.016
324.95 K, 15998 kPa, x2 = 0.9 | 142.496
324.95 K, 16998 kPa, x2 = 0.5001 | 86.706
324.95 K, 17000 kPa, x2 = 0.9 | 150.561
324.95 K, 17998 kPa, x2 = 0.5001 | 91.271
324.95 K, 18003 kPa, x2 = 0.9 | 158.509
324.95 K, 18996 kPa, x2 = 0.5001 | 95.768
324.95 K, 19001 kPa, x2 = 0.9 | 166.298
324.95 K, 19974 kPa, x2 = 0.5001 | 100.115
349.93 K, 2982 kPa, x2 = 0.95 | 27.214
349.93 K, 12999 kPa, x2 = 0.95 | 114.314
349.93 K, 13999 kPa, x2 = 0.95 | 122.495
349.93 K, 14993 kPa, x2 = 0.95 | 130.518
349.93 K, 15998 kPa, x2 = 0.95 | 138.524
349.94 K, 997 kPa, x2 = 0.95 | 9.137
349.94 K, 998 kPa, x2 = 0.9 | 8.697
349.94 K, 999 kPa, x2 = 0.5001 | 5.133
349.94 K, 1998 kPa, x2 = 0.5001 | 10.223
349.94 K, 1998 kPa, x2 = 0.95 | 18.271
349.94 K, 1999 kPa, x2 = 0.9 | 17.375
349.94 K, 2979 kPa, x2 = 0.9 | 25.835
349.94 K, 2984 kPa, x2 = 0.5001 | 15.198
349.94 K, 3995 kPa, x2 = 0.5001 | 20.259
349.94 K, 3997 kPa, x2 = 0.95 | 36.385
349.94 K, 3998 kPa, x2 = 0.9 | 34.568
349.94 K, 4998 kPa, x2 = 0.9 | 43.083
349.94 K, 4998 kPa, x2 = 0.95 | 45.368
349.94 K, 5000 kPa, x2 = 0.5001 | 25.225
349.94 K, 5998 kPa, x2 = 0.5001 | 30.119
349.94 K, 5998 kPa, x2 = 0.9 | 51.533
349.94 K, 5998 kPa, x2 = 0.95 | 54.273
349.94 K, 6996 kPa, x2 = 0.5001 | 34.959
349.94 K, 6996 kPa, x2 = 0.95 | 63.099
349.94 K, 6997 kPa, x2 = 0.9 | 59.903
349.94 K, 7995 kPa, x2 = 0.5001 | 39.749
349.94 K, 7998 kPa, x2 = 0.9 | 68.207
349.94 K, 7998 kPa, x2 = 0.95 | 71.871
349.94 K, 8997 kPa, x2 = 0.5001 | 44.504
349.94 K, 8998 kPa, x2 = 0.9 | 76.424
349.94 K, 8999 kPa, x2 = 0.95 | 80.553
349.94 K, 9995 kPa, x2 = 0.5001 | 49.185
349.94 K, 9996 kPa, x2 = 0.9 | 84.544
349.94 K, 9999 kPa, x2 = 0.95 | 89.144
349.94 K, 10995 kPa, x2 = 0.5001 | 53.825
349.94 K, 10996 kPa, x2 = 0.9 | 92.584
349.94 K, 10998 kPa, x2 = 0.95 | 97.623
349.94 K, 11994 kPa, x2 = 0.5001 | 58.4
349.94 K, 11995 kPa, x2 = 0.95 | 105.989
349.94 K, 11997 kPa, x2 = 0.9 | 100.534
349.94 K, 12994 kPa, x2 = 0.9 | 108.364
349.94 K, 12996 kPa, x2 = 0.5001 | 62.939
349.94 K, 13990 kPa, x2 = 0.5001 | 67.389
349.94 K, 14000 kPa, x2 = 0.9 | 116.157
349.94 K, 14992 kPa, x2 = 0.5001 | 71.82
349.94 K, 14999 kPa, x2 = 0.9 | 123.797
349.94 K, 15993 kPa, x2 = 0.9 | 131.294
349.94 K, 15994 kPa, x2 = 0.5001 | 76.196
349.94 K, 16996 kPa, x2 = 0.5001 | 80.519
349.94 K, 16996 kPa, x2 = 0.95 | 146.347
349.94 K, 17001 kPa, x2 = 0.9 | 138.788
349.94 K, 17991 kPa, x2 = 0.5001 | 84.762
349.94 K, 17997 kPa, x2 = 0.9 | 146.084
349.94 K, 18002 kPa, x2 = 0.95 | 154.124
349.94 K, 18991 kPa, x2 = 0.5001 | 88.967
349.94 K, 18992 kPa, x2 = 0.9 | 153.266
349.94 K, 18992 kPa, x2 = 0.95 | 161.661
349.94 K, 19744 kPa, x2 = 0.9 | 158.626
349.94 K, 19885 kPa, x2 = 0.5001 | 92.681
349.94 K, 19940 kPa, x2 = 0.95 | 168.761
